The test system of series [1] is Pseudomonas aeruginosa IFO3899. Format: cell-based. The settings on record: IFO3899, 2 h, pH 7.5. The method, then: (§1) Microbicidal assay was performed as previously described. A low ionic strength condition was used to detect bactericidal activity with higher sensitivity. Briefly, each microbial strain in the mid-exponential phase was suspended in 10 mM Tris/HCl, pH 7.5. The microbial suspension was mixed with peptides. After 2 h incubation, the suspension was diluted 1,000 times and inoculated on to plates of IFO702 medium (1% polypeptone, 0.2% yeast extract, 0.1% MgSO4 7H2O, 2% agar). The numbers of colonies were counted, and a plot of peptide concentration vs colony number was created.

Series [2] relates to Salmonella typhimurium IFO13245. It is filed as cell-based. The settings on record: murium IFO13245, 2 h, pH 7.5. As to the method: as §1
The test system of series [3] is Bacillus subtilis IFO3134. It is filed as cell-based. The settings on record: IFO3134, 2 h, pH 7.5. The method, then:
as §1

The test system of another series is Escherichia coli JM109. Format: cell-based. The settings on record: JM109, 2 h, pH 7.5. The method, then:
as §1

Series [4] relates to Staphylococcus aureus IFO12732. Format: cell-based. The settings on record: IFO12732, 2 h, pH 7.5. The method, then:
as §1

Series [5] has as its system Micrococcus luteus IFO12708. It is filed as cell-based. The settings on record: IFO12708, 2 h, pH 7.5. The method, then:
as §1

The test system of series [6] is Serratia marcescens IFO3736. It is filed as cell-based. The settings on record: IFO3736, 2 h, pH 7.5. As to the method:
as §1

For series [7], the system named is Saccharomyces cerevisiae MAFF113011. Format: cell-based. The settings on record: MAFF113011, 2 h, pH 7.5. The method, then:
as §1

For series [8] the following is noted: cited from earlier work.
A further series concerns Human erythrocytes. Nature of the series: Hemolytic assay. It is filed as cell-based. The settings on record: peptide 300 μg/mL, 10 mM Tris-HCl pH 7.5 with 308 mM sucrose, 0.5 h, A540, pure water = 100% lysis. The method, then:
Hemolytic assay was performed as previously described. Human erythrocytes were used. Hemolysis was estimated as the leakage of haemoglobin. The erythrocytes were washed and resuspended in 10 mM Tris-HCl, pH 7.5, containing 308 mM sucrose. The erythrocyte suspension was diluted by 30%. The diluted suspension was mixed with the equal volume of peptide solution dissolved in the same buffer. After 0.5 h of incubation, the test suspension was centrifuged to remove the intact erythrocytes. The supernatant was diluted, and A540 was measured. The hemolysis caused by pure water was defined as 100% lysis.

Series [9] can be described thus: Liposome disruption assay (calcein release), PG/CL liposomes. The settings on record: PG:CL = 3:1 (molar), 10 mM Tris-HCl pH 7.5 with 350 mM sucrose, room temperature, three independent trials. As to the method:
(§2) Membrane-disrupting activity was estimated by liposome disruption assay. Bovine heart phosphatidylglycerol (PG), egg cardiolipin (CL), and egg phosphatidylcholine (PC) were purchased from Avanti Polar Lipids, Inc., Alabama, USA. A lipid film was prepared by rotary evaporation of lipid solution (1 mg lipid in 1 ml chloroform). The lipid film was hydrated with 1 ml of 10 mM Tris-HCl buffer (pH 7.5) containing 75 mM calcein. Lipid dispersions were sonicated and subjected to five freeze-thaw cycles. Non-trapped calcein was removed by gel filtration on a Sephacryl S-300 spin column (GE Healthcare Bio-Science Corp., Piscataway, NJ, USA) equilibrated with 10 mM Tris-HCl (pH 7.5) containing 175 mM NaCl and 1 mM EDTA. These calcein-entrapped liposomes were diluted at a ratio of 1:1000 in 10 mM Tris-HCl (pH 7.5) containing 350 mM sucrose. Calcein release after membrane disruption was evaluated by measuring fluorescence intensity at 515 nm with excitation at 492 nm on a RF-5300PC spectrofluorometer at room temperature.
Figure 4 Membrane-disruption against acidic-liposomes. Calcein release from vesicles consisting of PG:CL = 3:1 was measured. Each point was obtained from three independent trials using a single preparation of liposomes and peptides, and represents the mean ± standard error of the mean.

Series [10] in a line: Liposome disruption assay (calcein release), PC liposomes. The method, then: as §2
The nature of series [11]: Precipitation in the presence of PG/CL liposomes (CD sample conditions). Format: physicochemical. The settings on record: peptide 100 μg/ml, PG/CL liposome 500 μg/ml, 10 mM Tris-HCl pH 7.5, 20°C. As to the method: CD spectra were recorded on a J-720 spectropolarimeter (JASCO, Tokyo, Japan) in the far-ultraviolet (UV) range from 190 to 260 nm using a 0.1 cm thermostatted cell at 25°C. Peptides were dissolved in 10 mM Tris-HCl (pH 7.5) containing tri-fluoroethanol (TFE) at 0-100%. For measurement under the presence of liposomes, peptides were dissolved at 100 μg/ml containing 500 μg/ml liposomes at 20°C.
Furthermore, membrane-disruptive activities against liposomes were also estimated. A liposome dye-leakage assay was used. […] In contrast, NP2P and NP3P damaged the PG/CL liposome membrane at ≥0.3 μg/ml (Figure 4). The concentration was equal or lower than MBCs against Gram-positive bacteria, which were measured under identical ionic conditions. […] Since CD spectra could not be measured, the conformation of NP3P in the presence of PG/CL membrane remains unclear.

Data on six substances can be found in article PMC3070621, “Generation of novel cationic antimicrobial peptides from natural non-antimicrobial sequences by acid-amide substitution” (Annals of Clinical Microbiology and Antimicrobials, 2011).

No end group written: not given here. Bounds are passed on as bounds.

As for HRRSVAHQEEASLHVKTDELPSPDTVREQL-OH [P4P], the MBC (in series [1]; in series [2]; in series [3]; against Escherichia coli JM109; in series [4]; in [5]) was >300 (>300) μg/ml in each case. For the same substance, the MBC in series [6] and in series [7] was >300 (>300) μg/ml in each case.

In the case of “HRRSVAHQQQASLHVKTNQLPSPNTVRQQL-OH [NP4P]”, the MBC (in [1]; in [2]; in series [3]; against Escherichia coli JM109; in series [4]; in series [5]) was >300 (>300) μg/ml each time. Besides, the MBC in [6] and in series [7] was >300 (>300) μg/ml each time. The “enhancer activity for membrane-disruptive antimicrobial peptides” value in [8] is on record as “enhancer activity for membrane-disruptive antimicrobial peptides was detected”.

RRRFVAEQDAIHSRVSREVPTLSDSV-OH [P1P]: the MBC (in series [1]; in series [2]; in series [3]; in the series with Escherichia coli JM109; in series [4]; in series [5]) was over 300 µg/mL in each case. In addition, the MBC in series [6] was >300 (>300) μg/ml; in series [7], over 300 µg/mL. In addition, the “Hemolytic activity (%)” value in the series on Human erythrocytes is 0.00 ± 0.00%.

RRRFVAQQNAIHSRVSRQVPTLSNSV-OH [NP1P]: the MBC in series [1] was found to be 20 µg/mL; in series [2], 30 µg/mL; in series [3], 30 µg/mL; in the series on Escherichia coli JM109, 10 µg/mL; in [4] it was 10 µg/mL; in series [5], 30 µg/mL. The MBC is >300 (>300) μg/ml in series [6] and 200 µg/mL in [7]. Further, the “concentration causing dye-leakage (membrane damage) of PG/CL liposomes” value in series [9] is over 200 µg/mL. Moreover, the “Hemolytic activity (%)” value in the series with Human erythrocytes is reported as 1.32 ± 0.02%. The “concentration causing dye-leakage (membrane disruption) of PC liposomes” value in series [10] (PC only liposomes, 10 mM Tris-HCl pH 7.5 with 350 mM sucrose, room temperature) is over 200 µg/mL.

As for RRRSVGEEDAIPSHIEVNKFFLRKPAKEHI-OH [P3P], the MBC was 70 µg/mL in [1]; over 300 µg/mL in [2]; over 300 µg/mL in series [3]; over 300 µg/mL against Escherichia coli JM109; over 300 µg/mL in series [4]; 200 µg/mL in [5]. Further, the MBC in [6] was >300 (>300) μg/ml; in series [7], over 300 µg/mL. Moreover, in [11], the “precipitation in the presence of PG/CL liposome” value is “not affected”. In the series with Human erythrocytes, the “Hemolytic activity (%)” value was determined as 1.69 ± 0.05%.

Turning to “RRRSVGQQNAIPSHIQVNKFFLRKPAKQHI-OH [NP3P]”, the MBC was 20 µg/mL in series [1]; 20 µg/mL in series [2]; 20 µg/mL in [3]; 7 µg/mL with Escherichia coli JM109; 5 µg/mL in series [4]; 10 µg/mL in series [5]. The MBC in series [6] is >300 (>300) μg/ml; in series [7], 7 µg/mL. Besides, the “precipitation in the presence of PG/CL liposome” value in [11] was “precipitated”. The “concentration causing dye-leakage (membrane damage) of PG/CL liposomes” value in series [9] is at least 0.3 µg/mL. In addition, in the series with Human erythrocytes, the “Hemolytic activity (%)” value is 2.61 ± 0.02%. In addition, the “effect on PC liposome membrane (in words)” value in series [10] (PC liposomes, data not shown) is “did not affect PC liposome membrane”.
